In ChEMBL document CHEMBL1201862, “PubChem BioAssay data set” (2004):
Values belong to the molecule of their own block, whether it stands above or below them. Active and inactive are the calls of the source.

Columns and labels:
[1] = HPDE-C7 pancreatic duct cell viability loss – fluorescence, HTS (AID 430); assay type: functional, cell-based; details: Homo sapiens
[2] = viability loss of HPDE-C7K cells – cell-based, fluorescence, HTS, primary screen (AID 431); assay type: functional; details: Homo sapiens
[3] = biological target: T1, Mannose-6-phosphate isomerase (Homo sapiens, UniProt P34949); test: MPI inhibition at elevated mannose 6-phosphate – biochemical, fluorescence intensity, high mannose 6-phosphate, primary screen (AID 1220)
T1 sequence (P34949 whole entry): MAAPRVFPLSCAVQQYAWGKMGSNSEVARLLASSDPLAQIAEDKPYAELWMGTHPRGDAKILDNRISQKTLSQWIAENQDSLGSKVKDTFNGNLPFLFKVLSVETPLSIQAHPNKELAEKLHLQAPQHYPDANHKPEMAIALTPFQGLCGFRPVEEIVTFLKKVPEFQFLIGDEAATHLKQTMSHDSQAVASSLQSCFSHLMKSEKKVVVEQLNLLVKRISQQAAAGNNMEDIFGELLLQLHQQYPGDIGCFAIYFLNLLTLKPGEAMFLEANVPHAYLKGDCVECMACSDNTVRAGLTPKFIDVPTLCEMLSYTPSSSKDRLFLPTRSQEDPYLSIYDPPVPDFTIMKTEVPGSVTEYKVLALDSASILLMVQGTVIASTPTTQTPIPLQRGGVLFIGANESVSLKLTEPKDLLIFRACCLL

[4] = biological target: DNA dC->dU-editing enzyme APOBEC-3A (Homo sapiens, UniProt P31941); test: A3A deaminase inhibition for selectivity – biochemical, dose response (AID 504722); assay type: functional
DNA dC->dU-editing enzyme APOBEC-3A, sequence (P31941 whole entry): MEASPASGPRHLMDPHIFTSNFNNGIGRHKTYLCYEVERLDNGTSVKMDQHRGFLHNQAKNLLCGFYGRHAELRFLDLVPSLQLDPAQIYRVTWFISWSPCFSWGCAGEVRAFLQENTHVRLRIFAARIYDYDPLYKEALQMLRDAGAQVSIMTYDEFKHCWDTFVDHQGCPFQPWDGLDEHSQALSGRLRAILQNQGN

[5] = biological target: DNA dC->dU-editing enzyme APOBEC-3G (Homo sapiens, UniProt Q9HC16); test: Dose Response confirmation of small molecule APOBEC3G DNA Deaminase Inhibitors via a fluorescence-based single-stranded DNA deaminase assay. [Related pubchem assays (depositor defined):AID493012, AID493028]; assay type: functional
DNA dC->dU-editing enzyme APOBEC-3G, sequence (Q9HC16 whole entry): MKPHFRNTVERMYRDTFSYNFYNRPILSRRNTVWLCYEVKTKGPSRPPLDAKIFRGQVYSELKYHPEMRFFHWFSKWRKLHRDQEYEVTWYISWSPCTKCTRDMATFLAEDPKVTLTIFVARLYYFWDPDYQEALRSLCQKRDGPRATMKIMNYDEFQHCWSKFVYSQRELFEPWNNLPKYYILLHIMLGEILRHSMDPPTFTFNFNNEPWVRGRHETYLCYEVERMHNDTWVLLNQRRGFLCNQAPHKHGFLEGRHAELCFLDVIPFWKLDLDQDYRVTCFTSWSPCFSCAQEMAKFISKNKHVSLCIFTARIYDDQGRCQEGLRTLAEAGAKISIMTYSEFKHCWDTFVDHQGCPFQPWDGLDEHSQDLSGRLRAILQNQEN

[6] = biological target: Cytochrome P450 2C19 (Homo sapiens, UniProt P33261); test: Cytochrome panel assay with activity outcomes. Panel member name: p450-cyp2c19 Compounds with AC50 equal or less than 10 uM are considered active; assay type: functional; details: read-out: AC50
Cytochrome P450 2C19, sequence (P33261 whole entry): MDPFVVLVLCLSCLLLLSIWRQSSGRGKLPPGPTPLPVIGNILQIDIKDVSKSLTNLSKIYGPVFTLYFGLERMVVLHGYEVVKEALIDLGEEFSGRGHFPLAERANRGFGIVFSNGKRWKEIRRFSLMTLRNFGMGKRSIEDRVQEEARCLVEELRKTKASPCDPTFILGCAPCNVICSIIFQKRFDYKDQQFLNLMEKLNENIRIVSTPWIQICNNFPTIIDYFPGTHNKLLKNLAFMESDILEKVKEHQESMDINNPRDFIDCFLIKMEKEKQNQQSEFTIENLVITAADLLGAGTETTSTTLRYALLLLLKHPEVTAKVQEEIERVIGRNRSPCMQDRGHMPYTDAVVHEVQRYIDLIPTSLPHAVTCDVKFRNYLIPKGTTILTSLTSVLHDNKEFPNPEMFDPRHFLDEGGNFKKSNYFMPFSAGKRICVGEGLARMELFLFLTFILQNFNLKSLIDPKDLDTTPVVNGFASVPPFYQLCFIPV

[7] = blockers of bursicon-stimulated LGR2 cAMP reporter – cell-based, HEK293, CRE-luciferase reporter, cherry pick, set 2, dose response (AID 743343); assay type: functional;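 further: transfected cells were stimulated with diluted bursicon conditioned medium after compound addition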
[8] = blockade of melanocortin 4 receptor signaling – cell-based, plate reader, cherry pick, counter-screen for LGR2 antagonist project, dose response (AID 743444); assay type: functional;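 further: transfected HEK 293 cells stimulated with alpha-MSH peptide; potency of inhibitors of the alpha-MSH evoked signal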
[9] = biological target: Heat shock protein HSP 90-alpha (Homo sapiens, UniProt P07900); assay type: functional, organism-based
[10] = biological target: Induced myeloid leukemia cell differentiation protein Mcl-1 (Homo sapiens, UniProt Q07820); assay type: functional
Induced myeloid leukemia cell differentiation protein Mcl-1, sequence (Q07820 whole entry): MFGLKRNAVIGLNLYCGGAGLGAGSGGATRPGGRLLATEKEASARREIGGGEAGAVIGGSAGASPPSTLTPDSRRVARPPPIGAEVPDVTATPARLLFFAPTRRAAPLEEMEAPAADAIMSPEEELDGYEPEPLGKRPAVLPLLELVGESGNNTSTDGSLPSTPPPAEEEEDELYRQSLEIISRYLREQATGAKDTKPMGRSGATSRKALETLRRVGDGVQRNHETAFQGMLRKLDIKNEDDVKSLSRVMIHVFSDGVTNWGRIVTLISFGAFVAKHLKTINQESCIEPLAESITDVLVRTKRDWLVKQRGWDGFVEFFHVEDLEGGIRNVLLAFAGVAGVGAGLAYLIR

[11] = viability loss in THP-1 monocytes – THP-1 cells, cytotoxicity control for Vif-APOBEC3G degradation inhibitor project, dose response (AID 1117359); assay type: functional; details: THP-1
[12] = biological target: T2, Polyadenylate-binding protein 1 (Homo sapiens, UniProt P11940); test: MLLE binding blockers, Cy5 peptide tracer – biochemical, fluorescence polarization, Cy5-PAM2 peptide, secondary, miRNA deadenylation inhibitor project, dose response (AID 602260); assay type: functional; details: read-out: IC50_Mean
T2 sequence (P11940 whole entry, the tested form may be a part): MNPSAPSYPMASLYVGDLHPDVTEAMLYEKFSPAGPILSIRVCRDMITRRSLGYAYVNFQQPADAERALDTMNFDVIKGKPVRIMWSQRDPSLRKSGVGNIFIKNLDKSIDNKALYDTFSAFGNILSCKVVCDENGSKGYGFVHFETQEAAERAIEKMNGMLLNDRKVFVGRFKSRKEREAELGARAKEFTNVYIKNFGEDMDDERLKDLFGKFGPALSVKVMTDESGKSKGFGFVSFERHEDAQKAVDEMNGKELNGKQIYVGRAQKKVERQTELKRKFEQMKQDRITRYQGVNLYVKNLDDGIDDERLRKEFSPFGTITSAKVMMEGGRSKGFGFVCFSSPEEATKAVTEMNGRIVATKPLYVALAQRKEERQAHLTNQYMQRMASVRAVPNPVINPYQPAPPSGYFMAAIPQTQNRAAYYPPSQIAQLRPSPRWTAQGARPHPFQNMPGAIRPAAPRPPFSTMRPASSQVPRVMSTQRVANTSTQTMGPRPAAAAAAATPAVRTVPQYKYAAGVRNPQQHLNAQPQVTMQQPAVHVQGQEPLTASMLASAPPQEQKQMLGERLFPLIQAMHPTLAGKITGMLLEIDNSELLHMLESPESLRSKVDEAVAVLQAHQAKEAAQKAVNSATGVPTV

[13] = biological target: T2, Polyadenylate-binding protein 1; test: MLLE domain peptide-binding blockers, IC50 – biochemical, fluorescence polarization, FITC-PAM2 peptide, dose response (AID 602259); assay type: functional; details: read-out: IC50_Mean
[14] = biological target: FAD-linked sulfhydryl oxidase ALR (Homo sapiens, UniProt P55789); test: ALR-catalysed DTT oxidation blockers – biochemical, H2O2 detection, luminescence, cherry-pick, dose response (AID 493248)
FAD-linked sulfhydryl oxidase ALR, sequence (P55789 whole entry): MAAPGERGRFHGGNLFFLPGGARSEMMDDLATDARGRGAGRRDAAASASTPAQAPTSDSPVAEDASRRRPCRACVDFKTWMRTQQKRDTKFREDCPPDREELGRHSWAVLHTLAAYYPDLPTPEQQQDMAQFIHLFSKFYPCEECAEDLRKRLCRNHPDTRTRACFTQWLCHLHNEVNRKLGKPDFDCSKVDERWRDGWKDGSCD

[15] = biological target: T3, Calpain-2 catalytic subunit (Sus scrofa, UniProt P43367); test: m-calpain protease blockers, concentration series – biochemical, fluorogenic peptide substrate, dose response (AID 1420); assay type: functional
T3 sequence (P43367 whole entry): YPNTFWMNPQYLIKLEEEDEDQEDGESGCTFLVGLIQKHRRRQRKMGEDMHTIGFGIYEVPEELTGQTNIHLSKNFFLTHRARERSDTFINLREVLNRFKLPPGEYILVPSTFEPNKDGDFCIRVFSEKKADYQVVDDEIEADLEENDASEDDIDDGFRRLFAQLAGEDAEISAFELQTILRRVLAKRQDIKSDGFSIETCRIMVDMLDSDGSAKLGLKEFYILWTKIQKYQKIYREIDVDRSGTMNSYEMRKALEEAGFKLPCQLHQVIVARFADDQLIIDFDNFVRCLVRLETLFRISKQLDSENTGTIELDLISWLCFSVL

SMILES: CCCc1cc(-c2[nH]ncc2-c2ccc3c(c2)OCCCO3)c(O)cc1O
- EC50 [1]: 8.22 µM (active)
- EC50 [2]: 8.05 µM (active)

SMILES: COc1ccc(OCc2n[nH]c(=S)n2N)cc1
- IC50 [3]: 21.4 µM (active)
- IC50 [4]: > 100 µM (inactive)
- IC50 [5]: 7.1 µM (active)

SMILES: CSc1ccc(NC(=O)Nc2cc(C)ccn2)cc1
- AC50 [6]: 3.98 µM (inconclusive)
- AC50 [7]: 3.7 µM (active)
- AC50 [8]: 9.27 µM (active)

- AC50 [9]: 4.6 µM (active)
SMILES: Cc1ccc(NC(S)=NCC23C=CC(O2)C2C(=O)N(c4ccc(C)cc4)C(=O)C23)cc1 (stereo not drawn)

- IC50 [10]: 5.63 µM (active)
SMILES: O=C(/C=C/c1cccs1)N1CCN(c2ccc(O)cc2)CC1
- CC50 [11]: > 40 µM (active)

SMILES: COc1cc(SC)ccc1C(=O)Nc1c(C)cccc1C
- CC50 [11]: > 40 µM (active)

- IC50 [3]: > 50 µM (not active)
SMILES: O=C(N/N=C/c1ccc(N2CCOCC2)o1)c1cccc([N+](=O)[O-])c1

- IC50 [12]: > 66 µM (inactive)
- IC50 [13]: > 66 µM (inactive)
SMILES: Cc1[nH]n(C2=NCCS2)c(=O)c1N=Nc1ccccc1

SMILES: COc1cccc(/C=N/n2c(S)nnc2-c2cc(C)[nH]n2)c1OC
- IC50 [4]: > 100 µM (inactive)
- IC50 [5]: 3.89 µM (active)
- AC50 [14]: 4.04 µM (active)

- IC50 [12]: > 66 µM (inactive)
- IC50 [13]: > 66 µM (inactive)
SMILES: COc1ccccc1OCC(=O)Nn1c(=S)[nH]c2ncccc2c1=O

SMILES: Cn1cccc1/C=N/n1c(S)nnc1-c1ccco1
- IC50 [4]: > 100 µM (inactive)
- IC50 [5]: 3.92 µM (active)

SMILES: N#CC1=C2SCN(c3ccccc3)CN2C(=O)CC1c1c(Cl)cccc1Cl (stereo not drawn)
- IC50 [4]: > 100 µM (inactive)
- IC50 [5]: 4.44 µM (active)

- IC50 [12]: > 66 µM (inactive)
- IC50 [13]: > 66 µM (inactive)
SMILES: CN(C)c1oc(-c2ccccc2[N+](=O)[O-])nc1C#N

- AC50 [9]: 14.9 µM (active)
SMILES: Cc1ccc(N2C(=O)C3C4C=CC(CN=C(S)N5CCN(c6ccccc6)CC5)(O4)C3C2=O)cc1 (stereo not drawn)

- IC50 [15]: 8.86 µM (not active)
SMILES: CSc1ccccc1NC(=O)COc1ccccc1C
